{
  "source": "patent US20230077290A1",
  "about": "“HEAVY METAL-FREE CALCIUM HYDROXIDE-BASED ACTIVE SUBSTANCE” (KALKFABRIK NETSTAL AG, priority 2016, published 2023)",
  "key": {"[1]": {"tested_on": "Plasmopara viticola", "test": "Tests against Plasmopara viticola on grapes, dust application before inoculation", "assay_type": "in vivo, Plasmopara viticola on Chasselas grapes", "details": "for % leaf surface with symptoms of infection: average +/- standard deviation; for effect on Plasmopara viticola infection, in words: grapes, dust application, positive control Kocide Opti 0.003%", "procedure": "Tests Against Plasmopara Viticola on Grapes The above-describe samples were tested in an independent plant research institute. The tests were set up as blind tests parallel to the following controls presented below. Study Design: […] For inoculation, the abaxial side of the fully developed leaves of Plasmopara viticola (50,000 spores/mL) were sprayed, and the entire plant was inoculated. Two types of all of the tests were performed: […] Dust application on the dry test plant before inoculation with the pathogen (so-called standard method) […] Dust application on a wet test plant before inoculation with the pathogen. […] Portion of infected leaf surface in percent of the overall leaf surface. The combined “efficacy severity” was then calculated from this in percent. Controls: […]"}, "[2]": {"details": "known compounds with very high capacity; cited from earlier work"}, "[3]": {"details": "Type 1 (dry), study of examples 1 and 2"}, "[4]": {"details": "Type 2 (wet), study of examples 1 and 2"}, "[5]": {"details": "Type 1 (dry), study of examples 3 and 4"}, "[6]": {"details": "Type 2 (wet), study of examples 3 and 4"}},
  "data": [
    {"compound": "[Ca+2].[OH-].[OH-]", "note": "[Example 2, Calcium hydroxide]", "values": [
      {"measurement": "% leaf surface with symptoms of infection", "setting": "[1]; Type 1 (dry) dust application on dry plant, study of examples 1 and 2", "result": "50 +/− 22%"},
      {"measurement": "% infected leaves", "setting": "[1]; [3]", "result": "89 +/− 17%"},
      {"measurement": "Efficacy severity", "setting": "[1]; [3]", "result": 46.8, "unit": "%"},
      {"measurement": "% leaf surface with symptoms of infection", "setting": "[1]; Type 2 (wet) dust application on wet plant, study of examples 1 and 2", "result": "59 +/− 22%"},
      {"measurement": "% infected leaves", "setting": "[1]; [4]", "result": "93 +/− 10%"},
      {"measurement": "Efficacy severity", "setting": "[1]; [4]", "result": 36.4, "unit": "%"},
      {"measurement": "effect on Plasmopara viticola infection, in words", "setting": "[1]", "result": "only a slight reduction of the infection"}
    ]},
    {"compound": "O=C([O-])[O-].[Li+].[Li+]", "note": "[Li2CO3]", "values": [
      {"measurement": "acid neutralization capacity bH+", "setting": "[2]", "result": 27, "unit": "mol/kg"}
    ]},
    {"compound": "N", "note": "[NH3]", "values": [
      {"measurement": "acid neutralization capacity bH+", "setting": "[2]", "result": 59, "unit": "mol/kg"}
    ]},
    {"compound": "[Na+].[OH-]", "note": "[NaOH]", "values": [
      {"measurement": "acid neutralization capacity bH+", "setting": "[2]", "result": 25, "unit": "mol/kg"}
    ]},
    {"compound": "Calcium stearate [Example 4]", "values": [
      {"measurement": "Efficacy severity", "setting": "[1]; [5]", "result": 7.3, "unit": "%"},
      {"measurement": "% leaf surface with symptoms of infection", "setting": "[1]; [5]", "result": "62 +/− 20%"},
      {"measurement": "% infected leaves", "setting": "[1]; Type 1 (wet) as printed, study of examples 3 and 4", "result": "93 +/− 10%"},
      {"measurement": "% infected leaves", "setting": "[1]; [6]", "result": "91 +/− 10%"},
      {"measurement": "Efficacy severity", "setting": "[1]; [6]", "result": 13.3, "unit": "%"},
      {"measurement": "% leaf surface with symptoms of infection", "setting": "[1]; [6]", "result": "58 +/− 8%"},
      {"measurement": "effect on Plasmopara viticola infection, in words", "setting": "[1]", "result": "inactive"}
    ]}
  ]
}
